For one assay, the target named is LRRK2 (Homo sapiens (Human), UniProt Q5S007). Briefly: In Vitro LRRK2 Assay (LabChip 3000, fluorescently-labeled peptide substrate). In kind it is biochemical. Particulars: ATP 130 μM, substrate 1 μM, 2 hours, ambient temperature; LRRK2 variant not given; read-out: Ki (μM), affinity values for LRRK2. The protocol: This assay was used to determine a compound's potency in inhibiting activity of LRRK2 by determining, Kiapp, IC50, or percent inhibition values. In a polypropylene plate, LRRK2, fluorescently-labeled peptide substrate, ATP and test compound were incubated together. Using a LabChip 3000 (Caliper Life Sciences), after the reaction the substrate was separated by capillary electrophoresis into two populations: phosphorylated and unphosphorylated. The relative amounts of each were quantitated by fluorescence intensity. LRRK2 Ki was determined according to the equation: Y=V0*(1−((x+Ki*(1+S/Km)+Et)/(2*Et)−(((x+Ki*(1+S/Km)+Et)^2−(4*Et*x))^0.5)/(2*Et))).
LRRK2, sequence (Q5S007 whole entry G2019S): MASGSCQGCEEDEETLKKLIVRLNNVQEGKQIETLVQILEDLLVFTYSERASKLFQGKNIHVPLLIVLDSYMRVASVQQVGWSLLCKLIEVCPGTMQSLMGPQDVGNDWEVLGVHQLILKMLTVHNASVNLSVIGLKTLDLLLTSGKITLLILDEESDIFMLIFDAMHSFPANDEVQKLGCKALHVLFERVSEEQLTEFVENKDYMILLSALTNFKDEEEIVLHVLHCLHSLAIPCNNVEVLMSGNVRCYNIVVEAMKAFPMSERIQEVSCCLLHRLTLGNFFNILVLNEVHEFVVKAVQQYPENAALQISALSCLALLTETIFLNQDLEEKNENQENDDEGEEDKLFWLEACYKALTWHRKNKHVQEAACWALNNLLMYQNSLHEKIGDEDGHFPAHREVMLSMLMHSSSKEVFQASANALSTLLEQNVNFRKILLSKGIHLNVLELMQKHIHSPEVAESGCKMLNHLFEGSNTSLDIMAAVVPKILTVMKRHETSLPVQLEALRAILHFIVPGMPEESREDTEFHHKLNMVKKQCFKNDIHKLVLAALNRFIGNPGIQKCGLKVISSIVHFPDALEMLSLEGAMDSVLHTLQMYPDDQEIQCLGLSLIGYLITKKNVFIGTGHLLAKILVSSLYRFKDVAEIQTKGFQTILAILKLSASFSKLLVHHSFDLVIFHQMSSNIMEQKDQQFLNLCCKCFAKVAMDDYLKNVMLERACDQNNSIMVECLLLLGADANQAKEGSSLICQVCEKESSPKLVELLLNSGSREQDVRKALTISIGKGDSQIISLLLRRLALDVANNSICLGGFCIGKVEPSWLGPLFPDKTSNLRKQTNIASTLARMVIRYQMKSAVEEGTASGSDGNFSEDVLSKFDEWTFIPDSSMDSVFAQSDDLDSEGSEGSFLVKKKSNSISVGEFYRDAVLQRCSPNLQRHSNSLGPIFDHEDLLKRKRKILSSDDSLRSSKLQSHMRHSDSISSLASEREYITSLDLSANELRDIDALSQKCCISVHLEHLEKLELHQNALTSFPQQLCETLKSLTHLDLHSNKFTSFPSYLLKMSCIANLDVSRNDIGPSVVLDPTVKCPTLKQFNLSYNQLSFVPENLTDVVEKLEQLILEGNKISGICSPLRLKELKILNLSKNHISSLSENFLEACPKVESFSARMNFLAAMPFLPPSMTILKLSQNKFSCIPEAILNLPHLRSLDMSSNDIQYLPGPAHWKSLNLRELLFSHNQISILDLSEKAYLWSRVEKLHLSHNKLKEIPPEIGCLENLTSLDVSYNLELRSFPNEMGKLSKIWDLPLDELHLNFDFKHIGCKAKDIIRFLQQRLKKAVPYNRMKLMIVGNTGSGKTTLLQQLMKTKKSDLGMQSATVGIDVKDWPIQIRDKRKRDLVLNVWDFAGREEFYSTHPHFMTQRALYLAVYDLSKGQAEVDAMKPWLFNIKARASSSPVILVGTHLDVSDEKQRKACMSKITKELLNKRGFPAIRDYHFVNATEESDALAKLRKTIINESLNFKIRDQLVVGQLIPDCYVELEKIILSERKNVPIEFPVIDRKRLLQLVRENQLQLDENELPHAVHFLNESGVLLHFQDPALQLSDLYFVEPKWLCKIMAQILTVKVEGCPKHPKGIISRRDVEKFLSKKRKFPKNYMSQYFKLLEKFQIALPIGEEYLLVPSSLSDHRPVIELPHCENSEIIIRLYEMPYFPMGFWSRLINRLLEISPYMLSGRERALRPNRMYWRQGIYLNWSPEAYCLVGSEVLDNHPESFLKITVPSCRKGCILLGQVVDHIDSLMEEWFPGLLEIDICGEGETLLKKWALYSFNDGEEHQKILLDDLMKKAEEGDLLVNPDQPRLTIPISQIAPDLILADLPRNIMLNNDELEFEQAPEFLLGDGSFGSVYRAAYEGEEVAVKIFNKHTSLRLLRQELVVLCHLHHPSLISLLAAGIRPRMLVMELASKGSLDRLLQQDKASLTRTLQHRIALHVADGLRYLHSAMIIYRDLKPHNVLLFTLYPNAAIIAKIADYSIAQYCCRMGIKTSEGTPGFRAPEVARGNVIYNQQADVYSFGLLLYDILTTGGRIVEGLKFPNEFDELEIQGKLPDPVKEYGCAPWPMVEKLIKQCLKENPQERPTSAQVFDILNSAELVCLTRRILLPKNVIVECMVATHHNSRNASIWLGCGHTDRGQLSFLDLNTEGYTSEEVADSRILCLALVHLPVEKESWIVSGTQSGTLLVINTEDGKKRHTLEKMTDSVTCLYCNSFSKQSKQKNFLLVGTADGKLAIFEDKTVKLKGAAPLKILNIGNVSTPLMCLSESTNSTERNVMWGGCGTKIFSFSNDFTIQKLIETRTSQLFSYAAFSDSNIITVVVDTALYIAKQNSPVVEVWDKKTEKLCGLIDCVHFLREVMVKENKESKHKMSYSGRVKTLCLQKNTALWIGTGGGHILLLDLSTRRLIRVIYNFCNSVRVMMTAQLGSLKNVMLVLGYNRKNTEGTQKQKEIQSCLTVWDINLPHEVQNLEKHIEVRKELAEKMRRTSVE
Ki values in Table 4 and elsewhere herein are shown in μM.
Assay conditions and materials used were as follows:
Compound Plate Preparation:
For serial dilutions, 34.6 μl DMSO was added to columns 3-24.
Total and Blank Preparation:
In Complete Reaction Buffer, substrate was diluted to 4 μM. Equal volumes of Complete Reaction Buffer and 4 μM substrate were combined to obtain the blank. Equal volumes of Complete Reaction Buffer and 4 μM substrate were combined and to the combined solution was added 2× final LRRK2 concentration.
To a 50 μl polypropylene plate, 5 μl/well buffer/substrate was added by hand to Blank wells. A Biomek FX was used to start the kinase reaction (“PLK SAR 23 ATP”). The following were added to the appropriate wells: • 2 μl compound+23 μl ATP; • 5 μl/well compound/ATP in Assay Plate; • 5 μl/well kinase/substrate in Assay Plate;
The plate was incubated for 2 hours in the dark. Biomek FX was used to stop the kinase reaction (“PLK Stop”), and 10 μl/well Stop solution was added to the Assay Plate. Results were read on the LabChip 3000.
The LabChip 3000 was run using the job “LRRK2 IC50” with the following job settings: • Pressure: −1.4 psi • Downstream voltage: −500 V • Upstream voltage: −2350 V • Post sample buffer sip time: 75 seconds • Post dye buffer sip time: 75 seconds • Final delay time: 200 seconds Parkinson's Disease Animal Model
For orientation: Ki means a dissociation constant, usually derived from enzyme kinetics or from competition with a known ligand. For the compound `c1cc(CN2CCOCC2)cc(-c2[nH]nc3ccnc(OC4CCOCC4)c23)c1` [Example 161, 4-(3-(4-(Tetrahydro-2H-pyran-4-yloxy)-1H-pyrazolo[4,3-c]pyridin-3-yl)benzyl)morpholine], the Ki is 0.107 µM. With `N#Cc1ccc(-c2cc(-c3n[nH]c4ccnc(OC5CCOCC5)c34)ccn2)cc1` [Example 202, 4-(4-(4-(tetrahydro-2H-pyran-4-yloxy)-1H-pyrazolo[4,3-c]pyridin-3-yl)pyridin-2-yl) benzonitrile], the Ki was found to be 0.025 µM.

Take `CC1CCCN(c2cc(-c3n[nH]c4ccnc(OC5CCOCC5)c34)ccn2)C1` (centres unmarked) [Example 111, 3-(2-(3-Methylpiperidin-1-yl)pyridin-4-yl)-4-(tetrahydro-2H-pyran-4-yloxy)-1H-pyrazolo[4,3-c]pyridine]: the Ki was 0.006 µM. Still for that read-out and setting: as for `CC(C)n1cc(-c2n[nH]c3ccnc(OCCN4CCOC4=O)c23)cn1` [Example 182, 3-(2-(3-(1-isopropyl-1H-pyrazol-4-yl)-1H-pyrazolo[4,3-c]pyridin-4-yloxy)ethyl)oxazolidin-2-one], the figure is 0.323 µM; as for `c1cc(-c2n[nH]c3ccnc(OC4CCOCC4)c23)cc(-c2cn[nH]c2)n1` [Example 204, 3-(2-(1H-pyrazol-4-yl)pyridin-4-yl)-4-(tetrahydro-2H-pyran-4-yloxy)-1H-pyrazolo[4,3-c]pyridine], 0.012 µM; as for `CNC(=O)c1cccc(-c2cc(-c3n[nH]c4ccnc(OC5CCOCC5)c34)ccn2)c1` [Example 211, N-methyl-3-(4-(4-(tetrahydro-2H-pyran-4-yloxy)-1H-pyrazolo[4,3-c]pyridin-3-yl)pyridin-2-yl)benzamide], 0.015 µM.

Consider `COc1nccc2[nH]nc(-c3cnn(C4COC4)c3)c12` [Example 86], for which the inhibition constant Ki is 0.031 µM.

Regarding `Cc1n[nH]c2ccnc(NC3CCOCC3)c12` [Example 188, 3-methyl-N-(tetrahydro-2H-pyran-4-yl)-1H-pyrazolo[4,3-c]pyridin-4-amine], the inhibition constant Ki came to 0.13 µM. As to `COc1nccc2[nH]nc(-c3ccnc(N4CCCC4)c3)c12` [Example 119, 4-Methoxy-3-(2-(pyrrolidin-1-yl)pyridin-4-yl)-1H-pyrazolo[4,3-c]pyridine], the Ki turned out to be 0.026 µM.

Consider `COCCOc1nccc2[nH]nc(-c3ccnc(N4CCOCC4)c3)c12` [Example 178, 4-(4-(4-(2-methoxyethoxy)-1H-pyrazolo[4,3-c]pyridin-3-yl)pyridin-2-yl) morpholine], for which the inhibition constant (Ki) stood at 0.023 µM.

On to `CC(C)n1cc(-c2n[nH]c3ccnc(OC(C)C(F)(F)F)c23)cn1` (centres unmarked) [Example 78, 3-(1-Isopropyl-1H-pyrazol-4-yl)-4-(2,2,2-trifluoro-1-methyl-ethoxy)-1H-pyrazolo[4,3-c]pyridine], for which the Ki came out at 0.013 µM. Consider `Cc1[nH]nc2ccnc(OC3CCOC3)c12` (centres unmarked) [Example 31], for which the Ki was found to be 0.158 µM. Same read-out and setting: as for `CC(=O)Nc1cccc(-c2cc(-c3n[nH]c4ccnc(OC5CCOCC5)c34)ccn2)c1` [Example 209, N-(3-(4-(4-(tetrahydro-2H-pyran-4-yloxy)-1H-pyrazolo[4,3-c]pyridin-3-yl)pyridin-2-yl)phenyl)acetamide], the figure is 0.01 µM. The same measure, in the same setting: with `COc1nccc2[nH]nc(-c3ccnc(-c4cnn(C)c4)c3)c12` [Example 121, 4-Methoxy-3-(2-(1-methyl-1H-pyrazol-4-yl)pyridin-4-yl)-1H-pyrazolo[4,3-c]pyridine] the figure was 0.042 µM; with `O=C1OCCN1CCOc1nccc2[nH]nc(-c3ccnc(N4CCOCC4)c3)c12` [Example 179, 3-(2-(3-(2-morpholinopyridin-4-yl)-1H-pyrazolo[4,3-c]pyridin-4-yloxy)ethyl)oxazolidin-2-one], 0.354 µM; with `c1cc2[nH]nc(-c3cnn(C4CCOC4)c3)c2c(OC2CCOCC2)n1` (centres unmarked) [Example 98, 4-(Tetrahydro-2H-pyran-4-yloxy)-3-(1-(tetrahydrofuran-3-yl)-1H-pyrazol-4-yl)-1H-pyrazolo[4,3-c]pyridine], 0.005 µM. `c1cc(Nc2[nH]nc3ccnc(OC4CCOCC4)c23)ccn1` [Example 163, N-(Pyridin-4-yl)-4-(tetrahydro-2H-pyran-4-yloxy)-1H-pyrazolo[4,3-c]pyridin-3-amine]: the inhibition constant Ki was 0.165 µM. Regarding `c1cc2[nH]nc(-c3cnn(C4CCOCC4)c3)c2c(OC2CCOCC2)n1` [Example 186, 3-(1-(tetrahydro-2H-pyran-4-yl)-1H-pyrazol-4-yl)-4-(tetrahydro-2H-pyran-4-yloxy)-1H-pyrazolo[4,3-c]pyridine], the inhibition constant Ki came to 0.013 µM. The same measure, in the same setting: with `c1cc2n[nH]c(C3CC3)c2c(OC2CCCCC2)n1` [Example 26, 4-(Cyclohexyloxy)-3-cyclopropyl-1H-pyrazolo[4,3-c]pyridine] the figure was 0.024 µM. The same measure, in the same setting: as for `CC(C)n1cc(-c2n[nH]c3ccnc(OCC(F)(F)F)c23)cn1` [Example 76, 3-(1-Isopropyl-1H-pyrazol-4-yl)-4-(2,2,2-trifluoroethoxy)-1H-pyrazolo[4,3-c]pyridine], the figure is 0.026 µM; as for `COc1cc(-c2n[nH]c3ccnc(OC)c23)ccn1` [Example 106, 4-Methoxy-3-(2-methoxypyridin-4-yl)-1H-pyrazolo[4,3-c]pyridine], 0.08 µM; as for `COc1cc(-c2n[nH]c3ccnc(OC4CCOCC4)c23)ccn1` [Example 101, 3-(2-Methoxypyridin-4-yl)-4-(tetrahydro-2H-pyran-4-yloxy)-1H-pyrazolo[4,3-c]pyridine], 0.022 µM. On to `CNC(=O)c1cccc(-c2[nH]nc3cc(C)nc(OC)c23)c1` [Example 235, 3-(4-methoxy-6-methyl-1H-pyrazolo[4,3-c]pyridin-3-yl)-N-methylbenzamide], for which the inhibition constant Ki is 0.199 µM. Take “3-(1-((2,2-difluorocyclopropyl)methyl)-1H-benzo[d]imidazol-5-yl)-4-(tetrahydro-2H-pyran-4-yloxy)-1H-pyrazolo[4,3-c]pyridine [Example 127]”: the Ki was 0.023 µM. For `CC(=O)Nc1ccccc1-c1cc(-c2n[nH]c3ccnc(OC4CCOCC4)c23)ccn1` [Example 206, N-(2-(4-(4-(tetrahydro-2H-pyran-4-yloxy)-1H-pyrazolo[4,3-c]pyridin-3-yl)pyridin-2-yl)phenyl)acetamide], the inhibition constant (Ki) came to 0.066 µM. On the same count and under the same terms, with `CC(Oc1nccc2[nH]nc(-c3ccnc(N4CCOCC4)c3)c12)C(F)(F)F` (centres unmarked) [Example 177, 4-(4-(4-(1,1,1-trifluoropropan-2-yloxy)-1H-pyrazolo[4,3-c]pyridin-3-yl)pyridin-2-yl)morpholine] the figure was 0.016 µM; with `c1cc(-c2n[nH]c3ccnc(NC4CCOCC4)c23)cc(N2CCOCC2)n1` [Example 9, 3-[2-(Morpholin-4-yl)pyridin-4-yl]-N-(tetrahydro-2H-pyran-4-yl)-1H-pyrazolo[4,3-c]pyridin-4-amine], 0.027 µM.

`CN(C)C(=O)c1ccc(-c2cc(-c3n[nH]c4ccnc(OC5CCOCC5)c34)ccn2)cc1` [Example 212, N,N-dimethyl-4-(4-(4-(tetrahydro-2H-pyran-4-yloxy)-1H-pyrazolo[4,3-c]pyridin-3-yl)pyridin-2-yl)benzamide]: the inhibition constant Ki was determined as 0.009 µM.

Staying with this assay, now noted: read-out: Ki (μM), affinity values for LRRK2.
For “3-(1-(oxetan-3-yl)-1H-benzo[d]imidazol-5-yl)-4-(tetrahydro-2H-pyran-4-yloxy)-1H-pyrazolo[4,3-c]pyridine [Example 125]”, the Ki was 0.056 µM.

The values above are taken from patent US8569281B2, “Compounds and their administration for treating a neurodegenerative disease as well as a method for identifying a compound capable of inhibiting a kinase, such as LRRK” (Medical Research Council Technology, priority 2010, dated 2013).
